Experimental data: patent US5480905A, “Benzodioxane derivatives” (Chugai Seiyaku Kabushiki Kaisha, priority 1991, dated 1996)
Counter-ions that a name gives are not always drawn.

Columns and labels:
S.D. line male rats [1] = test: Antianxiety effect, water drinking under punishment (Vogel); format: in vivo, rat; design: Antianxiety effect / Antianxiety effect, longevity: unit not given here; conditions: for change in vivo at 20 mg/kg: Rattus norvegicus, po, read-out: Antianxiety effect, Efficacy
Protocol: Antianxiety test was conducted in accordance with a method adapted from the method of Vogel et al. (Psychopharmacol., 21, 1-7, 1971). Stated more specifically, S.D. line male rats weighing 250-300 g were entirely kept from water for 24 h and then placed in a concrete experimental box. […] The bottom of the box was made of a stainless steel grid, from which electric shock (0.2 mA, 0.5 sec) could be applied to the limbs of rats. The test schedule was as follows: first, the rats were acclimatized to the experimental box and trained for drinking water; this was done for 3 min without electric shock. The quantity of water drunk by the rats was then measured (under non-punishment). Then, the rats were kept from drinking water for 24 h. Thereafter, the quantity of water drunk by each rat was measured (before administration of test compound) under such conditions that an electric shock was applied each time a rat drank one water drop (under punishment).Thirty minutes later, a test drug was administered perorally and after an additional 20 min, the quantity of water drunk by each rat was again measured under punishment (after administration of test compound). The quantity of water drunk by rats will decrease under punishment but it is known that the initial level can be restored by administering an antianxiety agent.
The antianxiety effect of a test compound was calculated by the following formula: [formula]
(§1) The procedure of Test Examples 2 and 3 were repeated except that test compounds were administered perorally in a dose of 10 mg/kg.
(§2) The procedures of Test Example 2 and 3 were repeated, except that test compounds were administered perorally in a dose of 20 mg/kg to check the longevity of their antianxiety and antidepressant effects for 0.5, 2 and 4 h.

serotonin 1A receptor = molecular target: T1, serotonin 1A receptor (Rattus norvegicus, UniProt P19327); test: Serotonin 1A receptor binding experiment (3H-8-OH-DPAT); conditions: rat cortex and hippocampal tissue; 0.5 nM 3H-8-OH-DPAT; IC50 in M; read-out: -logIC50 5-HT1A (converted)
T1 construct: the cortex and hippocampal tissue were extracted from the brain; from tissue; host or cells: brain cortex and hippocampus of 7-week-old male S.D. rats, washed membrane homogenate
T1 sequence (P19327 1-422): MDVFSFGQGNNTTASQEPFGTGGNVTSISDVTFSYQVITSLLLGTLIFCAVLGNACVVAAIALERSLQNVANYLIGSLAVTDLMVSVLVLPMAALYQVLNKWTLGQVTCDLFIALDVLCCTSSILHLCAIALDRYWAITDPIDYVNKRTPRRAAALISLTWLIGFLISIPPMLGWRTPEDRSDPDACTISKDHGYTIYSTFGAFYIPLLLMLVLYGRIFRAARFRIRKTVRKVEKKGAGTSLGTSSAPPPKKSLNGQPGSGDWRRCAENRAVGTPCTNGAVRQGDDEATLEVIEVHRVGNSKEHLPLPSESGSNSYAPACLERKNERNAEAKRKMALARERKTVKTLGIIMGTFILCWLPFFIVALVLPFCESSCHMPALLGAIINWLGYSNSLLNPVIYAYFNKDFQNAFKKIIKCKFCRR
Protocol: (§3) Affinity for intracerebral serotonin 1A and serotonin 2 receptor was checked in accordance with the method of Hall et al. (J. Neurochem., 44, 1685-1695, 1985) and the method of Leysen et al. (Mol. Pharmacol., 21, 301-314, 1982).
(§4) Stated more specifically, the cortex and hippocampal tissue were extracted from the brain of 7-wk old S.D. line male rats, mixed with 20 volumes of Tris-HCl buffer (50 mM, pH 7.7) and homogenized with a Teflon homogenizer. Thereafter, the homogenate was centrifuged at 39800×g for 20 min and the supernatant was discarded. Forty volumes of a buffer were added to the precipitate and the mixture was homogenized with a Polytron homogenizer, with the homogenate being centrifuged under the same condition as set forth above. The same procedure was repeated two more times and the final precipitate was homogenized with 40 volumes of a buffer; thereafter, the homogenate was stored at least overnight at -80° C. On the day when binding experiments were to be conducted, the homogenate was thawed at room temperature and incubated at 37° C. for 20 min to remove the endogenous serotonin.
(§5) Thereafter, centrifugation was conducted at 39800×g for 20 min and 40 volumes of a buffer were added to the precipitate, followed by homogenization. This procedure was repeated three times; to the final precipitate, a buffer was added in 65 volumes for the case of serotonin 1A receptor and in 80 volumes for the case of serotonin 2 receptor and the mixture was homogenized in preparation for the binding experiments that are described below. All procedures of experimentation except storage in a frozen state and thawing at room temperature were conducted at 4° C. or below.
A reaction solution containing 0.5 nM (final concentration) of 3H-8-hydroxy-2-(di-n-propylamino)tetralin (8-OH-DPAT), […] and 500 μl of brain homogenate in 1.0 ml (final volume) of a buffer was incubated at 25° C. for 30 min. Thereafter, the reaction solution was filtered by rapid passage through a glass filler. The filter was washed rapidly with an ice-cooled buffer (3 ml) three times, put into a scintillation vial together with a scintillation cocktail, and left to stand overnight at 4° C. On the next day, the vial was agitated well and measurements were conducted with a scintillation counter. To determine the amount of specific binding, the amount of binding in the presence of excess unlabeled serotonin (10 μM) was subtracted from the total amount of binding. As an index for the affinity of a test compound for either receptor, the concentration at which the specific binding of ^3 H-DPAT was inhibited by 50% (IC50, M) was determined using computer software EBDA/LIGAND (Biosoft).

serotonin 2 receptor = molecular target: T2, serotonin 2 receptor (Rattus norvegicus, UniProt P14842); test: Serotonin 2 receptor binding experiment (3H-ketancerine); conditions: rat cortex and hippocampal tissue; 0.5 nM 3H-ketancerine; IC50 in M; read-out: -logIC50 5-HT2 (converted)
T2 construct: the cortex and hippocampal tissue were extracted from the brain; from tissue; host or cells: brain cortex and hippocampus of 7-week-old male S.D. rats, washed membrane homogenate
Protocol: as §3, §4, §5
A reaction solution containing 0.5 nM (final concentration) of ^3 H-ketancerine and 500 μl of brain homogenate in 1.0 ml (final volume) of a buffer was incubated at 30° C. for 30 min. Subsequent procedures were the same as in the serotonin 1A receptor binding experiment and IC50 (M) was determined accordingly. To determine the amount of specific binding, the amount of binding in the presence of excess unlabelled methysergide ([…]) was subtracted from the total amount of binding.

S.D. line male rats [2] = test: Antidepressant effect, compelled swim test (Porsolt), time over which rats remain motionless; format: in vivo, rat; conditions: peroral 20 mg/kg; for inhibition in vivo at 20 mg/kg: Rattus norvegicus, po, 0.5 h, 30 min before swim, read-out: Antidepressant effect, Efficacy
Protocol: An antidepression test was conducted in accordance with the method of Porsolt et al. (Europ. J. Pharmacol., 47, 379-391, 1978). Stated more specifically, 7-wk old S.D. line male rats were placed in a glass cylinder (18 cm^.phi. ×40 cm^H) for 15 min. The cylinder was filled with water (25° C.) to a depth of 15 cm. Thereafter, the rats were placed in a hot environment (32° C.) for 15 min before they were returned to the cage. Twenty-four hours later, the rats were compelled again to swim in the same cylinder for 5 min and the total time over which the rats remained motionless was measured. A test drug was administered perorally to each animal 30 min before it was compelled to swim for 5 min. Antidepressant agents are known to be capable of specifically reducing the time over which the rats would remain motionless (Psyehopharmaeol., 83, 1-16, 1984, and ibid., 94, 147-160, 1988). The antidepressant effect was calculated by the following formula: [formula]
as §1, §2

T2 sequence (P14842 whole entry): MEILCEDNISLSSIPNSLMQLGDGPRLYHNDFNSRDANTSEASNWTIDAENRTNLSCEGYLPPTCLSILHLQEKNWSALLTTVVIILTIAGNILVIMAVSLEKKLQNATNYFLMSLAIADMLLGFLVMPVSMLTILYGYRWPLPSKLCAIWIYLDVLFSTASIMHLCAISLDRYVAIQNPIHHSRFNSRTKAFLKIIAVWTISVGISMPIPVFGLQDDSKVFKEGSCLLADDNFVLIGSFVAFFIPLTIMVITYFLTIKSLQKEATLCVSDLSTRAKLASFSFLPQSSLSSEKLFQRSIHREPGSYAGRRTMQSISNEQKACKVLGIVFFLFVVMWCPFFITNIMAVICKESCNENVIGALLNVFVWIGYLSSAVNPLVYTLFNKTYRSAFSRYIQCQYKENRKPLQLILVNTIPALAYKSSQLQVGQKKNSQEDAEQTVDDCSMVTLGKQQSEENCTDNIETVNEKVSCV

Row | IC50 (serotonin 1A receptor) [nM] | IC50 (serotonin 2 receptor) [nM] | Compound | change in vivo at 20 mg/kg (S.D. line male rats [1]; peroral 20 mg/kg) [%] | Antianxiety effect (S.D. line male rats [1]; peroral 20 mg/kg) | Antianxiety effect (S.D. line male rats [1]; peroral 10 mg/kg) | Antianxiety and antidepressant effects (S.D. line male rats [1]; peroral 10 mg/kg, Table 6) | inhibition in vivo at 20 mg/kg (S.D. line male rats [2]) [%] | Antidepressant effect (S.D. line male rats [2])
1 | 2.51 | 158 | O=C(NCCNCC1COc2cc(O)ccc2O1)C12CC3CC(CC(C3)C1)C2 (centres unmarked) [Compound 16, N-{[2-(6-hydroxy-1,4-benzodioxan-2ylmethyl)amino]ethyl}tricyclo[3,3,1,1^3, ^7]decane-1-carboxyamide] | 46.5 ± 4.7 | almost comparable effects to WY-50324 |  |  |  | 
2 | 0.398 | 200 | Nc1ccc2c(c1)OC(CNCCNC(=O)C13CC4CC(CC(C4)C1)C3)CO2 (centres unmarked) [Compound 12, N-{[2-(7-amino-1,4-benzodioxan-2-ylmethyl)amino]ethyl}tricyclo[3,3,1,1^3, ^7]decane-1-carboxyamide] |  |  | 52.1 ± 2.5 | superiority | 57 ± 5.9 | almost comparable effects to WY-50324
3 | 0.251 | 251 | O=C(NCCNCC1COc2ccc(O)cc2O1)C12CC3CC(CC(C3)C1)C2 (centres unmarked) [Compound 17, N-{[2-(7-hydroxy-1,4-benzodioxan-2ylmethyl)amino]ethyl}tricyclo[3,3,^3, ^7]decane-1-carboxyamide] | 66.6 ± 8.7 | comparable effects to MDL-73005 |  |  |  | 
4 | 6.31 | 1000 | O=C(NCCNCC1COc2c(O)cccc2O1)C12CC3CC(CC(C3)C1)C2 (centres unmarked) [Compound 19, N-{[2-(5-hydroxy-1,4-benzodioxan-2ylmethyl)amino]ethyl)tricyclo[3,3,1,1^3, ^7]decane-1-1-carboxyamide] |  |  |  |  |  | 
5 | 158 | > 1000 | Cc1cccc2c1OC(CN(CCNC(=O)C13CC4CC(CC(C4)C1)C3)Cc1ccccc1)CO2 (centres unmarked) [Compound a, N-{[2-(8-methyl 1,4-benzodioxan-2-ylmethyl)benzylamino]ethyl}tricyclo[3,3,1,^3, ^7]decane-1-carboxyamide] |  |  |  |  |  | 
6 | > 31.6 | 200 | Cc1cc(C)c2c(c1)OCC(CNCCNC(=O)C13CC4CC(CC(C4)C1)C3)O2 (centres unmarked) [Compound 20, N-{[2(6,8-dimethyl-1,4-benzodioxan-2ylmethyl)amino]ethyl)tricyclo[3,3,1,1^3, ^7]decane-1-carboxyamide] |  |  |  |  |  | 
7 | 3.98 | 1000 | C=CCN(CCNC(=O)C12CC3CC(CC(C3)C1)C2)CC1COc2cccc(C)c2O1 (centres unmarked) [Compound 9, N-{[2-(8-methyl-1,4-benzodioxan-2-ylmethyl)allylamino]ethyl}tricyclo[3,3,1^3, ^7]decane-1-carboxyamide] |  |  |  |  |  | 
8 | 10 | 631 | CCCN(CCNC(=O)C12CC3CC(CC(C3)C1)C2)CC1COc2cccc(C)c2O1 (centres unmarked) [Compound 10] |  |  |  |  |  | 
9 | 63.1 | 316 | CC(C)Cc1ccc2c(c1)OC(CNCCNC(=O)C13CC4CC(CC(C4)C1)C3)CO2 (centres unmarked) [Compound 13, N-{[2-(7-isobutyl-1,4-benzodioxan-2ylmethyl)amino]ethyl}tricyclo[3,3,1,1^3, ^7]decane-1-carboxyamide] |  |  |  |  |  | 

Row | Compound | IC50 (serotonin 1A receptor) [nM] | IC50 (serotonin 2 receptor) [nM] | change in vivo at 20 mg/kg (S.D. line male rats [1]; peroral 20 mg/kg) [%] | Antianxiety effect (S.D. line male rats [1]; peroral 20 mg/kg) | Antianxiety effect (S.D. line male rats [1]; peroral 10 mg/kg) | Antianxiety and antidepressant effects (S.D. line male rats [1]; peroral 10 mg/kg, Table 6) | inhibition in vivo at 20 mg/kg (S.D. line male rats [2]) [%] | Antidepressant effect (S.D. line male rats [2])
10 | CC(=O)c1cccc2c1OC(CNCCNC(=O)C13CC4CC(CC(C4)C1)C3)CO2 (centres unmarked) [Compound 15, N-{[2-(8-acetyl-1,4benzodioxan-2ylmethyl)amino]ethyl}tricyclo[3,3,1,1^3, ^7]decane-1-carboxyamide] | 3.16 | 63.1 |  |  |  |  |  | 
11 | Cc1ccc2c(c1)OCC(CNCCNC(=O)C13CC4CC(CC(C4)C1)C3)O2 (centres unmarked) [Compound 3, N-{[2-(6-methyl-1,4-benzodioxan-2ylmethyl)amino]ethyl}tricyclo[3,3,1,1^3, ^7]decane-1-carboxyamide] | 2.51 | 23.4 | 63.9 ± 6.8 | comparable effects to MDL-73005 |  |  | 56.8 ± 9 | almost comparable effects to WY-50324
12 | COc1cccc2c1OC(CNCCNC(=O)C13CC4CC(CC(C4)C1)C3)CO2 (centres unmarked) [Compound 5, N-{[2-(8-methoxy-1,4-benzodioxan-2ylmethyl)amino]ethyl}tricyclo[3,3,1,1^3'7]decane-1-carboxyamide] | 0.347 | 10 | 40.9 ± 7.3 | almost comparable effects to WY-50324 |  |  | 97.6 ± 0.9 | better antidepressant effects than WY-50324
13 | Cc1ccc(C)c2c1OCC(CNCCNC(=O)C13CC4CC(CC(C4)C1)C3)O2 (centres unmarked) [Compound 11, N-{[2-(5,8-dimethyl-1,4-benzodioxan-2-ylmethyl)amino]ethyl}tricyclo[3,3,1^3, ^7]decane-1-carboxyamide] | 3.98 | 79.4 |  |  |  |  |  | 
14 | Cc1cccc2c1OC(CNCCNC(=O)C13CC4CC(CC(C4)C1)C3)CO2 (single isomer, unassigned; (+)) [Compound 8, (+)-N-{[2-(8-methyl-1,4-benzodioxan-2ylmethyl)amino]ethyl}tricyclo[3,3,1,1^3, ^7]decane-1-carboxyamide hydrochloride] | 6.31 | 50.1 |  |  |  |  |  | 
15 | COc1ccc2c(c1)OC(CNCCNC(=O)C13CC4CC(CC(C4)C1)C3)CO2 (centres unmarked) [Compound 14, N-{[2-(7-methoxy-1,4-benzodioxan-2-ylmethyl)amino]ethyl}tricyclo[3,3,1,1^3, ^7]decane-1-carboxyamide] | 0.398 | 25.1 |  |  |  |  | 46.9 ± 7.1 | 
